In one data set the test system is M. luteus. More on the design: method as in Seniya et al. [2012]. To be noted: against M. luteus; ref Seniya et al. [2012]; cited from earlier work.
Data set [1] has as its system Micrococcus luteus (DSM 1605). Kind of data set: Broth dilution assay, antibacterial activity. Format: cell-based. To be noted: for MIC50: Micrococcus luteus, DSM1605, M. luteus, concentration inhibiting 50% of growth rate, NB medium, 37°C, 24 h, mean ± SD. As to the method: Micrococcus luteus (DSM 1605) was obtained from DSMZ (German Collection of Microorganisms and Cell Cultures GmbH). It was cultured on nutrient agar or in nutrient broth (NB, DSMZ #1) containing 5 g L^−1 peptone from casein (Carl Roth, Karlsruhe, Germany) and 3 g L^−1 meat extract (Carl Roth, Karlsruhe, Germany) under aerobic conditions at 37°C.
(§1) Antibacterial activity of hop compounds against Gram‐positive M. luteus and B. subtilis was analyzed using Broth Dilution Assay. Twofold dilutions of hop compounds were prepared in NB or TSB medium, ranging from theoretical concentrations of 500 to 0.5 µg mL^−1 and transferred to 48‐well microtiter plates (Sarstedt, Nuembrecht, Germany). Gentamicin sulfate was used as a positive control. The optical density (OD) of a preculture prepared on the previous day was measured at 600 nm in a spectrophotometer (Implen, Muenchen, Germany). The inoculum was then diluted with NB or TSB medium to the desired OD600 nm of 0.1 and transferred to all wells (150 µL) except the sterile control, which consists only of medium. The ODs of the cultures were measured every hour at 750 nm using a plate reader (Tecan, Maennedorf, Switzerland) for 24 h. In the meantime, the plates were incubated at 37°C or 28°C without shaking. The chosen wavelength of 750 nm resulted from previous experiments with hop extracts to avoid an overlap of the absorption spectrum with chlorophyll (Guidi et al. [2017]). The growth rates were obtained from the exponential range of the generated growth curves. All values were normalized to the growth control (without hop compounds). MIC50 (minimum concentration of a substance that inhibits the growth of 50% of the bacteria tested) values were calculated by nonlinear regression using GraphPad Prism model “log(inhibitor) versus response,” where the basal response was subtracted and the bottom was set to a constant value (0). Means and standard deviations (SDs) were calculated from two biological duplicates, each consisting of three technical replicates.

Data set [2] in a line: MTT based cell viability assay (cytotoxic activity). To be noted: chicken, UMNSAH/DF-1 chicken fibroblast cells, UMNSAH/DF-1, 48 h treatment, mean ± SD. The procedure: UMNSAH/DF‐1 cell line was purchased from Cytion (Eppelheim, Germany). The cells were maintained in Dulbecco's Modified Eagle Medium (DMEM, Sigma‐Aldrich, St. Louis, USA) containing 10% heat‐inactivated fetal bovine serum (FBS, Sigma‐Aldrich, St. Louis, USA) and cultured at 37°C and 5% CO2 in a humidified atmosphere. Cell lines were serially passaged after being detached with Accutase solution (Sigma‐Aldrich, St. Louis, USA).
The hop compounds were investigated for their cytotoxic effect on the chicken cell line UMNSAH/DF‐1, using the 3‐(4,5‐dimehtylthiazol‐2‐yl)‐2,5‐diphenyltetrazolium bromide (MTT) based cell viability assay. Cells were seeded in 96‐well microtiter plates (Sarstedt, Nümbrecht, Germany) with a cell density of 0.05 × 10^6 cells per mL and 100 µL per well and incubated for 24 h (37°C, 5% CO2). After that the medium was discarded and a dilution series of hop compounds in DMEM was added to the wells (100 µL), ranging from theoretical concentrations of 200 µg mL^−1 to 20 ng mL^−1. For vitality control, 20% dimethyl sulfoxide (DMSO) (TH Geyer, Renningen, Germany) was added, and for growth control, culture medium was added. The cytotoxic measurements were also performed with gentamicin sulfate as a control. Treated cells were further incubated for 48 h (37°C, 5% CO2). […] Means and SDs were calculated from two biological duplicates, each consisting of three technical replicates.

The subject of data set [3] is Bacillus subtilis (DSM 23778). Kind of data set: Broth dilution assay, antibacterial activity. To be noted: for MIC50: Bacillus subtilis, DSM23778, B. subtilis, concentration inhibiting 50% of growth rate, TSB medium, 28°C, 24 h, mean ± SD; for Selectivity index (SI), quotient of IC50 and MIC50: IC50 UMNSAH/DF-1 / MIC50 B. subtilis. Format: cell-based. The procedure:
Bacillus subtilis (DSM 23778) was obtained from DSMZ (German Collection of Microorganisms and Cell Cultures GmbH). It was cultured on tryptic soy broth (TSB, DSMZ #545) agar plates or in TSB containing 17 g L^−1 peptone from casein, 3 g L^−1 peptone from soy, 2.5 g L^−1 D‐(+)‐glucose, 5 g L^−1 NaCl, and 2.5 g L^−1 K2HPO4 (Carl Roth, Karlsruhe, Germany) under aerobic conditions at 28°C.
as §1
A general note: Dilution methods test growth across graded concentrations, often in twofold steps.

Data set [4] is described as follows: Solubility of hop compounds in aqueous media (HPLC of supernatant). Format: physicochemical. To be noted: 10% (v/v) ethanol; for Solubility in aqueous medium (in words): DMEM with/without 10% FBS, NB, TSB, theoretical 1 mg mL^−1; for solubility: culture media DMEM, NB and TSB, aqueous with cosolvent or surfactant or cyclodextrin, kinetic from dmso stock, in the media selected (DMEM, NB, TSB), read-out: Solubility limit. The procedure: High‐performance liquid chromatography (HPLC) measurements were performed using an NUCLEODUR C18 Gravity‐SB (3 µm, 250 × 2 mm) column equipped with a precolumn (Machery Nagel, Düren, Germany) in a Shimadzu HPLC system (Kyoto, Japan). The flow rate was set to 0.6 mL min^−1 at 40°C using 80% methanol/20% phosphoric acid (0.5% [v/v] in H2O) as mobile phase. Media samples were 10‐fold diluted in the mobile phase, incubated for 10 min at 40°C and centrifuged at 10,000g for 10 min. 10 μL of filtered (polytetrafluoroethylene, 0.2 µm) samples was injected for analysis. Identification and quantification of isoxanthohumol, xanthohumol, co‐/n‐/adhumulone, co‐/n‐/adlupulone, and co‐/n‐/adisohumulone by a UV‐Detector (314 nm for 0–24 min, and 270 nm for 24.01–45 min) were performed by corresponding standard curves. The preparation of hop compound solutions was carried out analogously for all three media NB, TSB, and DMEM for use in bacterial and avian cell culture. Hop compounds were provided by Hopsteiner (Mainburg, Germany) in the following purities: isoxanthohumol (81.0%), xanthohumol (90.0%), humulone (88.5%), lupulone (74.3%), and isohumulone (91.0%). The hop compounds were dissolved in ethanol to 10 mg mL^−1. From this stock solution, 1:10 dilutions were prepared in the respective medium, resulting in precipitation due to their hydrophobic character. After centrifugation (10,000g, 10 min), the clear supernatant was transferred to a new tube and used for further experiments. […] This is why the actual concentration of the compounds in the aqueous medium was analyzed using HPLC and used for subsequent calculations. Due to the hydrophobic character of hop pure compounds, a complete dissolution in an aqueous medium cannot be assumed. […] To assess the influence of FBS on solubility, DMEM without serum was also tested. For humulone, lupulone, and isohumulone, the three derivatives (co‐/n‐/ad‐) are considered together in this figure and also in the following.

Data set [5] has as its system human prostate (PC3) and colon (HT29) cancer cell lines. More on the design: method as in Farag and Wessjohann [2013]. To be noted: ref Farag and Wessjohann [2013]; cited from earlier work.
Data set [6] concerns A-2780 ovarian cancer cell line. More on the design: method as in Miranda et al. [1999]. To be noted: ref Miranda et al. [1999], cited from earlier work.
The subject of data set [7] is MCF-7 breast cancer cell line. On the set-up: method as in Miranda et al. [1999]. To be noted: ref Miranda et al. [1999], cited from earlier work.
The test system of data set [8] is normal human fibroblasts (BJ cells). On the set-up: method as in Klimek et al. ([2021]). To be noted: ref Klimek et al. ([2021]); cited from earlier work.
Data set [9] deals with normal murine hepatocytes (AML 12 cell line). More on the design: method as in Ho et al. [2008]. To be noted: ref Ho et al. [2008]; cited from earlier work.
Setting [10] is: read-out: IC50 (antiproliferative effect).

The source of these data is paper PMC12540922, “Selective Antimicrobial and Cytotoxic Effects of Hop Compounds to Combat Poultry Antimicrobial Resistance” (MicrobiologyOpen, 2025).

Values after ≈ are worked out from the molar mass of the structure shown. “Also recorded” adds a separate entry of the source. Counter-ions that a name gives are not always drawn.

The MIC90 is the lowest concentration that inhibits either 90% of growth or 90% of the strains tested, depending on the study. `CC1(C)S[C@@H]2[C@H](NC(=O)[C@H](N)c3ccccc3)C(=O)N2[C@H]1C(=O)O` [ampicillin]: the MIC90 in the data set with M. luteus was 2500 µg/mL (≈ 7150 µM).

As for `CO/N=C(\C(=O)N[C@@H]1C(=O)N2C(C(=O)O)=C(CSc3nc(=O)c(=O)[nH]n3C)CS[C@H]12)c1csc(N)n1` [ceftriaxone], in the data set with M. luteus, the MIC90 was 500 µg/mL (≈ 902 µM).

What is called MIC50 is an inhibitory concentration at the 50% level, which refers to growth in some studies and to a panel of isolates in others. Higher therefore signals lower susceptibility. For orientation: IC50 means the concentration that gives 50% inhibition. For `CNC(C)C1CCC(N)C(OC2C(N)CC(N)C(OC3OCC(C)(O)C(NC)C3O)C2O)O1` (stereo not drawn) [gentamicin sulfate, reference compound], the MIC50 in [1] worked out at 0.26 ± 0.08 µg/mL; in data set [3], 0.73 ± 0.2 µg/mL. In data set [2], this molecule returned a 50% inhibitory concentration (IC50) at 48 h of 1440 ± 390 µg/mL.

One may read the solubility as how much of the substance goes into solution per volume. Regarding `CC(C)=CCC1C(=O)C(C(=O)CC(C)C)=C(O)C(O)(CC=C(C)C)C1=O` (stereo not drawn) [humulone], in data set [4], the “Solubility in aqueous medium (in words)” value is “highest” and the solubility is roughly 1000 µg/mL (≈ 2760 µM). Further, the “Selectivity index (SI), quotient of IC50 and MIC50” value in data set [3] is given as “around 6”. Besides, the IC50 in data set [5] is 13.2 to 15.5 µg/mL.

For `COc1cc(O)c(CC=C(C)C)c2c1C(=O)CC(c1ccc(O)cc1)O2` (stereo not drawn) [isoxanthohumol], the “Times less effective than xanthohumol” value in [6] is 35 times. Further, in data set [4], the “Solubility in aqueous medium (in words)” value is “minimal; also recorded: moderately dissolved; also recorded: limited solubility”. Further, the “Effect compared with xanthohumol (in words)” value in data set [7] was “comparable effect”.

Regarding `CC(C)=CCC1=C(O)C(C(=O)CC(C)C)=C(O)C(CC=C(C)C)(CC=C(C)C)C1=O` [lupulone], the results for the MIC50 in data set [1] and in [3] were 1.5 ± 0.48 µg/mL (≈ 3.62 µM) and 0.1 ± 0.0029 µg/mL (≈ 0.241 µM), respectively. In addition, the IC50 at 48 h in data set [2] came out at 1.5 ± 0.034 µg/mL (≈ 3.62 µM). Also, the solubility in [4] was roughly 1000 µg/mL (≈ 2410 µM). In addition, in data set [5], the IC50 is 2.4 to 8.1 µg/mL.

Regarding `[H]/N=C(/N)N[C@H]1[C@H](O)[C@@H](O)[C@H](O[C@@H]2O[C@@H](C)[C@](O)(C=O)[C@H]2O[C@@H]2O[C@@H](CO)[C@H](O)[C@@H](O)[C@@H]2NC)[C@@H](N/C(N)=N\[H])[C@@H]1O` [streptomycin], the MIC90 in the data set with M. luteus is 500 µg/mL (≈ 860 µM).

With `COc1cc(O)c(CC=C(C)C)c(O)c1C(=O)/C=C/c1ccc(O)cc1` [xanthohumol], the “Selectivity index (SI), quotient of IC50 and MIC50” value in [1] (IC50 UMNSAH/DF-1 / MIC50 M. luteus) is 5.5 ± 0.36; in [3], “around 6”. In data set [1], this molecule displayed an MIC50 of 0.95 ± 0.04 µg/mL (≈ 2.68 µM). Besides, the half-maximal inhibitory concentration (IC50) is 0.52 µM in data set [6] (setting [10]), 26.56 µg/mL (≈ 74.9 µM) in [8], 13.3 µM in data set [7] (setting [10]) and 211 µM in [9]. The “Solubility in aqueous medium (in words)” value was “minimal; also recorded: only a small proportion of xanthohumol could be recovered” in data set [4] and “limited solubility” in [4] (listed as Xanthohumol).
